One data set concerns HIV-1 (IIIB). The experiment in a line: microbe, parasite or virus in culture. To be noted: Human immunodeficiency virus 1, IIIB, MT4, 120 h, HIV-1 (IIIB) in MT-4 cells, 5 days incubation, Cell Titer Glo; read-out: MT4 EC50. It counts as cell-based.
A further data set concerns pLAI reporter virus. The experiment in a line: microbe, parasite or virus in culture. In kind it is cell-based, HIV. To be noted: Human immunodeficiency virus 1, MT4, 72 h.
Another data set is described as follows: in vitro. To be noted: human, uninfected MT-4 cells.

SMILES strings stand for the structures. Read-outs that look alike come from different tables or passages of the source.

As to `COCCOC1=NO[C@@]2(CC[C@H](C)N3C[C@H]2n2cc(C(=O)NCc4c(F)cc(F)cc4F)c(=O)c(O)c2C3=O)C1` [Example 38, (3′S,5S,7′R)-12′-hydroxy-3-(2-methoxyethoxy)-3′-methyl-1′,11′-dioxo-N-(2,4,6-trifluorobenzyl)-1′,4′,5′,11′-tetrahydro-3′H,4H,7′H-spiro[isoxazole-5,6′-[2,7]methanopyrido[1,2-a][1,4]diazonine]-10′-carboxamide], the results for the concentration for a half-maximal effect (EC50) with HIV-1 (IIIB), in the data set with pLAI reporter virus (read-out: RLUC 50% HS EC50) and in the data set with pLAI reporter virus (read-out: RLUC CCM EC50) were 1.2 nM, 1.5 nM and 0.3 nM, respectively. The compound also yielded a CC50 at 5 days in “in vitro” of 22100 nM.
For the compound `[2H]C([2H])([2H])OC1=NO[C@@]2(CC[C@H](C)N3C[C@H]2n2cc(C(=O)NCc4c(F)cc(F)cc4F)c(=O)c(O)c2C3=O)C1([2H])[2H]` [Example 39, (3′S,5S,7′R)-12′-hydroxy-3-(methoxy-d3)-3′-methyl-1′,11′-dioxo-N-(2,4,6-trifluorobenzyl)-1′,4′,5′,11′-tetrahydro-3′H,4H,7′H-spiro[isoxazole-5,6′-[2,7]methanopyrido[1,2-a][1,4]diazonine]-4,4-d2-10′-carboxamide], the EC50 came to 1 nM in the data set with HIV-1 (IIIB), 35.4 nM in the data set on pLAI reporter virus (read-out: RLUC 50% HS EC50) and 0.3 nM in the data set on pLAI reporter virus (read-out: RLUC CCM EC50). Besides, it took 23500 nM to reach half-maximal cytotoxicity in “in vitro” (CC50 at 5 days).
Turning to `COCCOC1=NO[C@@]2(CC[C@H](C)N3C[C@H]2n2cc(C(=O)NCc4ccc(F)cc4F)c(=O)c(O)c2C3=O)C1` [Example 41, (3′S,5S,7′R)—N-(2,4-difluorobenzyl)-12′-hydroxy-3-(2-methoxyethoxy)-3′-methyl-1′,11′-dioxo-1′,4′,5′,11′-tetrahydro-3′H,4H,7′H-spiro[isoxazole-5,6′-[2,7]methanopyrido[1,2-a][1,4]diazonine]-10′-carboxamide], the results for the EC50 with HIV-1 (IIIB), in the data set on pLAI reporter virus (read-out: RLUC 50% HS EC50) and in the data set with pLAI reporter virus (read-out: RLUC CCM EC50) were 0.6 nM, 0.5 nM and 0.4 nM, respectively. In addition, the CC50 at 5 days in the data set “in vitro” came out at 21500 nM.
For `C[C@H]1CC[C@]2(CC(C#N)=NO2)[C@H]2CN1C(=O)c1c(O)c(=O)c(C(=O)NCc3ccc(F)cc3F)cn12` [Example 42, (3′S,5S,7′R)-3-cyano-N-(2,4-difluorobenzyl)-12′-hydroxy-3′-methyl-1′,11′-dioxo-1′,4′,5′,11′-tetrahydro-3′H,4H,7′H-spiro[isoxazole-5,6′-[2,7]methanopyrido[1,2-a][1,4]diazonine]-10′-carboxamide] the same measures were ≥ 100 nM, 550 nM, 157 nM and ≥ 50000 nM.
As to `CSC1=NO[C@@]2(CC[C@H](C)N3C[C@H]2n2cc(C(=O)NCc4c(F)cc(F)cc4F)c(=O)c(O)c2C3=O)C1` [Example 43, (3′S,5S,7′R)-12′-hydroxy-3′-methyl-3-(methylthio)-1′,11′-dioxo-N-(2,4,6-trifluorobenzyl)-1′,4′,5′,11′-tetrahydro-3′H,4H,7′H-spiro[isoxazole-5,6′-[2,7]methanopyrido[1,2-a][1,4]diazonine]-10′-carboxamide], the EC50 in the data set with HIV-1 (IIIB) is 6.1 nM; in the data set on pLAI reporter virus (read-out: RLUC 50% HS EC50), 279 nM; in the data set with pLAI reporter virus (read-out: RLUC CCM EC50), 1.5 nM. Further, the CC50 at 5 days in “in vitro” was determined as 33400 nM.
In the case of `C[C@H]1CC[C@]2(CC(Br)=NO2)[C@H]2CN1C(=O)c1c(O)c(=O)c(C(=O)NCc3ccc(F)cc3F)cn12` [Example 44, (3′S,5S,7′R)-3-bromo-N-(2,4-difluorobenzyl)-12′-hydroxy-3′-methyl-1′,11′-dioxo-1′,4′,5′,11′-tetrahydro-3′H,4H,7′H-spiro[isoxazole-5,6′-[2,7]methanopyrido[1,2-a][1,4]diazonine]-10′-carboxamide], the EC50 with HIV-1 (IIIB) came out at 0.7 nM; in the data set on pLAI reporter virus (read-out: RLUC 50% HS EC50) it was 160 nM; in the data set with pLAI reporter virus (read-out: RLUC CCM EC50) it was 0.1 nM. This compound displayed a cytotoxic concentration (CC50) at 5 days in “in vitro” of 24400 nM.
Consider `C[C@H]1CC[C@]2(CC(OC3COC3)=NO2)[C@H]2CN1C(=O)c1c(O)c(=O)c(C(=O)NCc3ccc(F)cc3F)cn12` [Example 45, (3′S,5S,7′R)—N-(2,4-difluorobenzyl)-12′-hydroxy-3′-methyl-3-(oxetan-3-yloxy)-1′,11′-dioxo-1′,4′,5′,11′-tetrahydro-3′H,4H,7′H-spiro[isoxazole-5,6′-[2,7]methanopyrido[1,2-a][1,4]diazonine]-10′-carboxamide], for which the EC50 in the data set with HIV-1 (IIIB) turned out to be 2 nM; with pLAI reporter virus (read-out: RLUC 50% HS EC50), 1.8 nM; in the data set on pLAI reporter virus (read-out: RLUC CCM EC50), 0.4 nM. In addition, the CC50 at 5 days in the data set “in vitro” is ≥ 50000 nM.
Turning to `C[C@H]1CC[C@]2(CC(OCC(F)(F)F)=NO2)[C@H]2CN1C(=O)c1c(O)c(=O)c(C(=O)NCc3ccc(F)cc3F)cn12` [Example 46, (3′S,5S,7′R)—N-(2,4-difluorobenzyl)-12′-hydroxy-3′-methyl-1′,11′-dioxo-3-(2,2,2-trifluoroethoxy)-1′,4′,5′,11′-tetrahydro-3′H,4H,7′H-spiro[isoxazole-5,6′-[2,7]methanopyrido[1,2-a][1,4]diazonine]-10′-carboxamide], the values for the 50% effective concentration (EC50) in the data set on HIV-1 (IIIB), in the data set on pLAI reporter virus (read-out: RLUC 50% HS EC50) and in the data set on pLAI reporter virus (read-out: RLUC CCM EC50) were 1.7 nM, 2.3 nM and 0.1 nM, respectively. This compound also gave a cytotoxic concentration (CC50) at 5 days in “in vitro” of 7720 nM.
As for `C[C@H]1CC[C@]2(CC(OCC(F)F)=NO2)[C@H]2CN1C(=O)c1c(O)c(=O)c(C(=O)NCc3ccc(F)cc3F)cn12` [Example 47, (3′S,5S,7′R)—N-(2,4-difluorobenzyl)-3-(2,2-difluoroethoxy)-12′-hydroxy-3′-methyl-1′,11′-dioxo-1′,4′,5′,11′-tetrahydro-3′H,4H,7′H-spiro[isoxazole-5,6′-[2,7]methanopyrido[1,2-a][1,4]diazonine]-10′-carboxamide], the EC50 stood at 1.8 nM in the data set with HIV-1 (IIIB), 6.5 nM with pLAI reporter virus (read-out: RLUC 50% HS EC50) and 0.5 nM with pLAI reporter virus (read-out: RLUC CCM EC50). The compound further showed a 50% cytotoxic concentration (CC50) at 5 days in the data set “in vitro” of 27500 nM.
For `COC1=NO[C@@]2(C=C[C@H](C)N3C[C@H]2n2cc(C(=O)NCc4ccc(F)c(Cl)c4F)c(=O)c(O)c2C3=O)C1` [Example 48, (3′S,5R,7′R)—N-(3-chloro-2,4-difluorobenzyl)-12′-hydroxy-3-methoxy-3′-methyl-1′,11′-dioxo-1′,11′-dihydro-3′H,4H,7′H-spiro[isoxazole-5,6′-[2,7]methanopyrido[1,2-a][1,4]diazonine]-10′-carboxamide], the EC50 with HIV-1 (IIIB) amounted to 0.4 nM; in the data set on pLAI reporter virus (read-out: RLUC 50% HS EC50) it was 8.1 nM; with pLAI reporter virus (read-out: RLUC CCM EC50), 0.2 nM. Besides, the CC50 at 5 days in “in vitro” was 22900 nM.
For `COC1=NO[C@@]2(CC[C@H](C)N3C[C@H]2n2cc(C(=O)NCc4ccc(F)c(Cl)c4F)c(=O)c(O)c2C3=O)C1` [Example 49, (3′S,5S,7′R)—N-(3-chloro-2,4-difluorobenzyl)-12′-hydroxy-3-methoxy-3′-methyl-1′,11′-dioxo-1′,4′,5′,11′-tetrahydro-3′H,4H,7′H-spiro[isoxazole-5,6′-[2,7]methanopyrido[1,2-a][1,4]diazonine]-10′-carboxamide] the same measures were 0.7 nM, 124 nM, 0.3 nM and 29800 nM.
With `C[C@H]1CC[C@@]2(ON=C3OCCC[C@@H]32)[C@H]2CN1C(=O)c1c(O)c(=O)c(C(=O)NCc3c(F)cc(F)cc3F)cn12` [Example 50, (3S,3a R,3′S,7′R)-12′-hydroxy-3′-methyl-1′,11′-dioxo-N-(2,4,6-trifluorobenzyl)-1′,3a,4,4′,5,5′,6,11′-octahydro-3′H,7′H-spiro[pyrano[2,3-c]isoxazole-3,6′-[2,7]methanopyrido[1,2-a][1,4]diazonine]-10′-carboxamide], the EC50 with HIV-1 (IIIB) stood at 0.8 nM; in the data set on pLAI reporter virus (read-out: RLUC 50% HS EC50) it was 10.3 nM; in the data set on pLAI reporter virus (read-out: RLUC CCM EC50), 0.5 nM. Further, the CC50 at 5 days in “in vitro” is ≥ 50000 nM.

Values taken from US20250115620A1, “BRIDGED TRICYCLIC CARBAMOYLPYRIDONE COMPOUNDS AND USES THEREOF” (Gilead Sciences, Inc., priority 2022, published 2025).
